In assay [1] the test system is Porphyromonas gingivalis DSM 20709. In words: Determination of minimum inhibitory concentration (microdilution assay). The following applies: for MIC: Porphyromonas gingivalis, DSM20709, 72 h, read-out: MIC Porphyromonas gingivalis.
In assay [2] the test system is Fusobacterium nucleatum DSM 20482. The description is as above. The following applies: for MIC: Fusobacterium nucleatum, DSM20482, 72 h, read-out: MIC Fusobacterium nucleatum.
Assay [3] has as its system Streptococcus mutans DSM 6178. The description is as above. The following applies: for MIC: Streptococcus mutans, DSM6178, 24 h, read-out: MIC Streptococcus mutans.
Assay [4] has as its system Prevotella melaninogenica. The assay is described as above. The following applies: 72 h, read-out: MIC Prevotella melaninogenica.
The test system of another assay is Staphylococcus aureus. To be noted: Amicbase; cited from earlier work.
The next assay concerns Streptococcus sp. The following applies: Amicbase; cited from earlier work.
Another assay has as its system Proteus mirabilis. To be noted: Amicbase; cited from earlier work.
Assay [5] deals with Mycobacterium tuberculosis subsp. tuberculosis. The following applies: Amicbase; cited from earlier work.
A further assay has as its system Pseudomonas aeruginosa. To be noted: Amicbase; cited from earlier work.
The next assay concerns Eschericia coli. The following applies: Amicbase; cited from earlier work.
Where [6] appears, read: 72 h, 37° C., anaerobic, without CO2, average of 3 MIC values.

In brackets after ≈: the same amount, converted by molar mass.

As to `CCCCC(C)C(=O)O` (centres unmarked) [2-Methylhexanoic acid, 2-methylhexanoic acid], the MIC in assay [1] was 1300 µg/mL (≈ 9.99 mM); in assay [2], 500 µg/mL (≈ 3.84 mM); in assay [3] it was no more than 150 µg/mL; in assay [4], 1500 µg/mL (≈ 11.5 mM).
For the molecule `Cc1ccc(O)cc1C` [3,4-dimethylphenol], the MIC in the assay with Staphylococcus aureus was 2000 ppm; with Streptococcus sp. it was 2000 ppm; in [1], no more than 150 µg/mL; in the assay on Proteus mirabilis, 4000 ppm; in assay [5], 20 ppm; with Pseudomonas aeruginosa it was 4000 ppm. Moreover, the MIC was 500 µg/mL (≈ 4.09 mM) in [2], no more than 150 µg/mL in [3], 4000 ppm in the assay with Eschericia coli and 590 µg/mL (≈ 4.83 mM) in assay [4].
On to `CC(=O)C1=C(C)[C@@H]2C[C@@]3(C1)[C@H](C)CC[C@H]3C2(C)C` [Acetyl cedrene, acetyl cedrene], for which, in assay [1] (setting [6]), the “MIC Porphyromonas gingivalis” value was 150 or less ppm. Also, in assay [2] (setting [6]), the “MIC Fusobacterium nucleatum” value is on record as 500 ppm. Also, the “MIC Streptococcus mutans” value in assay [3] (24 h, 37° C., anaerobic, with CO2, average of 3 MIC values) turned out to be 250 ppm.
Consider `CC1=CCC(CCC(C)CO)C1(C)C` (centres unmarked) [Brahmanol, 2-methyl-4-(2,2,3-trimethyl-3-cyclopenten-1-yl)-1-butanol], for which the results for the MIC in assay [1], in assay [2] and in assay [3] were no more than 150 µg/mL, 250 µg/mL (≈ 1.27 mM) and 250 µg/mL (≈ 1.27 mM), respectively.
For `O=C/C=C/c1ccccc1` [Cinnamic aldehyde, cinnamic aldehyde], the MIC was no more than 150 µg/mL in [1], 500 µg/mL (≈ 3.78 mM) in assay [2] and 250 µg/mL (≈ 1.89 mM) in assay [3].
As to `O=C1CCCCCCCCCCCCCC1` [Cyclopenta-decanone, cyclopentadecanone], the MIC in assay [1] is no more than 150 µg/mL; in [2] it was 1000 µg/mL (≈ 4.46 mM); in assay [3], 1000 µg/mL (≈ 4.46 mM).
In the case of `COC(=O)c1c(C)cc(O)c(C)c1O` [Methylatrarate, methyl-2,4-dihydroxy-3,6-dimethyl-benzoate], the MIC in assay [1] is no more than 150 µg/mL; in assay [2], no more than 150 µg/mL; in assay [3], 1000 µg/mL (≈ 5.1 mM).

The values are drawn from patent publication US20090324515A1, “ANTIMICROBIAL FLAVOURING COMPOSITION” (priority 2006, published 2009).
